Source: patent publication US10202377B2, “3-(1H-benzo[D]imidazol-2-yl)-1H-pyrazolo[3,4-C]pyridine and therapeutic uses thereof” (Samumed, LLC, priority 2014, dated 2019)

Assays:
[1] = tested on: primary human mesenchymal stem cells (hMSCs); assay: Chondrogenesis induction in primary human mesenchymal stem cells (nodule imaging, Rhodamine B/Nile Red); assay type: cell-based; settings: 6 days, dose at which the compound reached maximum chondrogenesis activity, dose range 10-2700 nM
Procedure: The above synthesized compounds were screened using primary human mesenchymal stem cells (hMSCs) to determine their ability to induce chondrogenesis (process by which cartilage is developed).
Human Mesenchymal Stem Cell Culture: Primary human mesenchymal stem cells (hMSCs) were purchased from Lonza (Walkersville, Md.) and expanded in Mesenchymal Stem Cell Growth Media (Lonza). Cells between passage 3 and 6 were used for the experiments.
Compound Screening: Each compound was dissolved in DMSO as a 10 mM stock and used to prepare compound source plates. Serial dilution (1:3, 6-point dose-response curves from 2700 nM to 10 nM) and compound transfer was performed using the ECHO 550 (Labcyte, Sunnyvale, Calif.) into 96-well clear bottom assay plates (Greiner Bio-One) with appropriate DMSO backfill for a final DMSO concentration of 0.03%. hMSCs were plated at 20,000 cells/well in 250 μL/well Incomplete Chondrogenic Induction Medium (Lonza; DMEM, dexamethasone, ascorbate, insulin-transferrin-selenium [ITS supplement], gentamycin-amphotericin [GA-1000], sodium pyruvate, proline and L-glutamine). TGF-β3 (10 ng/mL) was used as a positive control for differentiation while negative control wells were treated with 75 nL DMSO for normalization and calculating EC50 values. Cells were incubated at 37° C. and 5% CO2 for 6 days. To image chondrogenic nodules, the cells were fixed using 4% formaldehyde (Electron Microscopy Sciences), and stained with 2 μg/mL Rhodamine B (Sigma-Aldrich) and 20 μM Nile Red (Sigma-Aldrich) [Johnson K., et. al, A Stem Cell-Based Approach to Cartilage Repair, Science, (2012), 336(6082), 717-721]. The nodules imaged (4 images per well at 4× magnification) by excitation at 531 nm and emission at 625 nm and quantified using the CellInsight CX5 (Thermo Scientific). Number of nodules in each well was normalized to the average of 3 DMSO treated wells on the same plate using Excel (Microsoft Inc.). The normalized averages (fold change over DMSO) of 3 replicate wells for each compound concentration were calculated. Due to solubility limitations of some of the compounds, curve fitting was incomplete leading to inaccurate EC50 determinations.
Using TGF-β3 as a positive control, the concentration of test compounds required to induce equivalent levels of chondrogenesis is reported. In addition, the maximum activity of each compound and the respective dose that each compound reached maximum chondrogenesis activity is reported.

[2] = tested on: primary human fibroblasts derived from IPF patients (LL29 cells); assay: Inhibition of fibrosis (αSMA staining) in TGF-β1-treated primary human fibroblasts from IPF patients; assay type: cell-based; settings: Fibroblast, 96 h, TGF-β1 20 ng/mL, 4 days
Method in brief: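 LL29 IPF fibroblasts in F12 with 1% FBS were stimulated with TGF-β1 (20 ng/mL) and incubated 4 days at 37 °C. SYTOX-positive dead cells were excluded, and αSMA-positive cells were counted by immunostaining as % of total. Values were normalized to TGF-β1/DMSO wells on the same plate, and EC50 derived.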

[3] = tested on: Wnt activity (Sp5-Luc reporter, SW480 colon carcinoma cells); assay: Sp5-Luc Wnt reporter gene screening assay in SW480 colon carcinoma cells; settings: Homo sapiens
Procedure: The screening assay for Wnt activity is described as follows.
SW480 colon carcinoma cells were transduced with a lentiviral vector expressing luciferase with a human Sp5 promoter consisting of a sequence of eight TCF/LEF binding sites. SW480 cells stably expressing the Sp5-Luc reporter gene and a hygromycin resistance gene were selected by treatment with 150 μg/ml of hygromycin for 7 days. These stably transduced SW480 cells were expanded in cell culture and used for all further screening activities. For Sp5-Luc reporter gene assays, the cells were plated at 10,000 cells/well in 96-well plates with growth medium containing 10% fetal calf serum and incubated overnight at 37° C. and 5% CO2. […] Compound transfer from serially diluted source plates to assay plates containing the cells was accomplished using a pintool (Multimek 96, Beckman equipped with V&P Scientific FP1S50H pins) based liquid handling protocol. This protocol used a slotted pin to transfer 50 nl of compound from a source plate well to an assay plate well containing 50 μl of cells in growth medium. […] Control wells received 50 nl of DMSO treatment for normalization and calculating IC50 values. The treated cells were incubated at 37° C. and 5% CO2 for an additional forty-two hours. Following incubation, the growth medium was removed and 50 μl of BrightGlo luminescence reagent (Promega) was added to each well of the 96-well assay plates. The plates were placed on an orbital shaker for 5 min and then luminescence was quantified on the Victor3 (Perkin Elmer) plate reader.

CN(C)Cc1cncc(-c2cc3c(-c4nc5c(N6CCCCC6)cccc5[nH]4)n[nH]c3cn2)c1 [Compound 169, N,N-dimethyl-1-(5-(3-(4-(piperidin-1-yl)-1H-benzo[d]imidazol-2-yl)-1H-pyrazolo[3,4-c]pyridin-5-yl)pyridin-3-yl)methanamine]
Conc (nM) of Max. activity [1]: 900 nM | EC50 [2]: 9 nM | IC50 [3]: 28.3 nM

CC(C)C(=O)Nc1cncc(-c2cc3c(-c4nc5c(-c6ccsc6)cccc5[nH]4)n[nH]c3cn2)c1 [Compound 269, N-(5-(3-(4-(Thiophen-3-yl)-1H-benzo[d]imidazol-2-yl)-1H-pyrazolo[3,4-c]pyridin-5-yl)pyridin-3-yl)isobutyramide]
Conc (nM) of Max. activity [1]: 900 nM | EC50 [2]: 49 nM | IC50 [3]: 4.2 nM

CN(C)Cc1cncc(-c2cc3c(-c4nc5c(-c6cccc(F)c6)cccc5[nH]4)n[nH]c3cn2)c1 [Compound 13, 1-(5-(3-(4-(3-Fluorophenyl)-1H-benzo[d]imidazol-2-yl)-1H-pyrazolo[3,4-c]pyridin-5-yl)pyridin-3-yl)-N,N-dimethylmethanamine]
Conc (nM) of Max. activity [1]: 300 nM | EC50 [2]: 9 nM | IC50 [3]: 19.1 nM

CC(C)CC(=O)Nc1cncc(-c2cc3c(-c4nc5c(-c6ccoc6)cccc5[nH]4)n[nH]c3cn2)c1 [Compound 288, N-(5-(3-(4-(Furan-3-yl)-1H-benzo[d]imidazol-2-yl)-1H-pyrazolo[3,4-c]pyridin-5-yl)pyridin-3-yl)-3-methylbutanamide]
Conc (nM) of Max. activity [1]: 10 nM | EC50 [2]: 9 nM | IC50 [3]: 6.8 nM

Fc1cccc(-c2cccc3[nH]c(-c4n[nH]c5cnc(-c6cn[nH]c6)cc45)nc23)c1 [Compound 939, 3-(4-(3-Fluorophenyl)-1H-benzo[d]imidazol-2-yl)-5-(1H-pyrazol-4-yl)-1H-pyrazolo[3,4-c]pyridine]
Conc (nM) of Max. activity [1]: 30 nM | EC50 [2]: 9 nM | IC50 [3]: 25 nM

O=C(Nc1cncc(-c2cc3c(-c4nc5c(-c6cccs6)cccc5[nH]4)n[nH]c3cn2)c1)C1CC1 [Compound 331, N-(5-(3-(4-(Thiophen-2-yl)-1H-benzo[d]imidazol-2-yl)-1H-pyrazolo[3,4-c]pyridin-5-yl)pyridin-3-yl)cyclopropanecarboxamide]
Conc (nM) of Max. activity [1]: 300 nM | EC50 [2]: 29 nM | IC50 [3]: 17.2 nM

CC(C)(C)C(=O)Nc1cncc(-c2cc3c(-c4nc5c(-c6ccc(F)cc6)cccc5[nH]4)n[nH]c3cn2)c1 [Compound 34, N-(5-(3-(4-(4-Fluorophenyl)-1H-benzo[d]imidazol-2-yl)-1H-pyrazolo[3,4-c]pyridin-5-yl)pyridin-3-yl)pivalamide]
Conc (nM) of Max. activity [1]: 2700 nM | EC50 [2]: 47 nM | IC50 [3]: 31.2 nM

Cc1ccncc1-c1cc2c(-c3nc4c(-c5cc(F)cc(CNS(C)(=O)=O)c5)cccc4[nH]3)n[nH]c2cn1 [Compound 421, N-(3-Fluoro-5-(2-(5-(4-methylpyridin-3-yl)-1H-pyrazolo[3,4-c]pyridin-3-yl)-1H-benzo[d]imidazol-4-yl)benzyl)methanesulfonamide]
Conc (nM) of Max. activity [1]: 100 nM | EC50 [2]: 9 nM | IC50 [3]: 10 nM

CC(C)C(=O)Nc1cncc(-c2cc3c(-c4nc5c(-c6cccnc6)cccc5[nH]4)n[nH]c3cn2)c1 [Compound 87, N-(5-(3-(4-(Pyridin-3-yl)-1H-benzo[d]imidazol-2-yl)-1H-pyrazolo[3,4-c]pyridin-5-yl)pyridin-3-yl)isobutyramide]
EC50 [2]: 124 nM | IC50 [3]: 45.4 nM

Cc1ccc(-c2cccc3[nH]c(-c4n[nH]c5cnc(-c6cncc(CN7CCCCC7)c6)cc45)nc23)s1 [Compound 379, 3-(4-(5-Methylthiophen-2-yl)-1H-benzo[d]imidazol-2-yl)-5-(5-(piperidin-1-ylmethyl)pyridin-3-yl)-1H-pyrazolo[3,4-c]pyridine]
EC50 [2]: 9 nM | IC50 [3]: 359 nM

CS(=O)(=O)NCc1cc(F)cc(-c2cccc3[nH]c(-c4n[nH]c5cnc(-c6cncnc6)cc45)nc23)c1 [Compound 442, N-(3-Fluoro-5-(2-(5-(pyrimidin-5-yl)-1H-pyrazolo[3,4-c]pyridin-3-yl)-1H-benzo[d]imidazol-4-yl)benzyl)methanesulfonamide]
EC50 [2]: 9 nM | IC50 [3]: 26 nM

Cc1ccc(-c2cccc3[nH]c(-c4n[nH]c5cnc(-c6cncc(NC(=O)C7CCCC7)c6)cc45)nc23)s1 [Compound 385, N-(5-(3-(4-(5-Methylthiophen-2-yl)-1H-benzo[d]imidazol-2-yl)-1H-pyrazolo[3,4-c]pyridin-5-yl)pyridin-3-yl)cyclopentanecarboxamide]
EC50 [2]: 20 nM | IC50 [3]: 33.1 nM

O=C(Nc1cncc(-c2cc3c(-c4nc5c(N6CCCCC6)cccc5[nH]4)n[nH]c3cn2)c1)C1CC1 [Compound 175, N-(5-(3-(4-(Piperidin-1-yl)-1H-benzo[d]imidazol-2-yl)-1H-pyrazolo[3,4-c]pyridin-5-yl)pyridin-3-yl)cyclopropanecarboxamide]
EC50 [2]: 187 nM | IC50 [3]: 76.9 nM

CC(C)CC(=O)Nc1cncc(-c2cc3c(-c4nc5c(-c6ccc(F)cc6)cccc5[nH]4)n[nH]c3cn2)c1 [Compound 28, N-(5-(3-(4-(4-Fluorophenyl)-1H-benzo[d]imidazol-2-yl)-1H-pyrazolo[3,4-c]pyridin-5-yl)pyridin-3-yl)-3-methylbutanamide]
EC50 [2]: 741 nM | IC50 [3]: 90.8 nM

CCCCC(=O)Nc1cncc(-c2cc3c(-c4nc5c(-c6cc(F)cc(NCCN(C)C)c6)cccc5[nH]4)n[nH]c3cn2)c1 [Compound 460, N-(5-(3-(4-(3-((2-(Dimethylamino)ethyl)amino)-5-fluorophenyl)-1H-benzo[d]imidazol-2-yl)-1H-pyrazolo[3,4-c]pyridin-5-yl)pyridin-3-yl)pentanamide]
EC50 [2]: 1060 nM | IC50 [3]: 182 nM

CC(C)C(=O)Nc1cncc(-c2cc3c(-c4nc5c(-c6ccccc6F)cccc5[nH]4)n[nH]c3cn2)c1 [Compound 61, N-(5-(3-(4-(2-Fluorophenyl)-1H-benzo[d]imidazol-2-yl)-1H-pyrazolo[3,4-c]pyridin-5-yl)pyridin-3-yl)isobutyramide]
EC50 [2]: 81 nM | IC50 [3]: 81.2 nM

CN(C)CCNc1cc(F)cc(-c2cccc3[nH]c(-c4n[nH]c5cnc(-c6cncc(NC(=O)C(C)(C)C)c6)cc45)nc23)c1 [Compound 450, N-(5-(3-(4-(3-((2-(Dimethylamino)ethyl)amino)-5-fluorophenyl)-1H-benzo[d]imidazol-2-yl)-1H-pyrazolo[3,4-c]pyridin-5-yl)pyridin-3-yl)pivalamide]
EC50 [2]: 85 nM | IC50 [3]: 159 nM

O=C(Nc1cncc(-c2cc3c(-c4nc5c(-c6cccc(F)c6)cccc5[nH]4)n[nH]c3cn2)c1)C1CCC1 [Compound 20]
EC50 [2]: 10 nM | IC50 [3]: 74.4 nM

Fc1cccc(-c2cccc3[nH]c(-c4n[nH]c5cnc(-c6cncc(CN7CCC(F)(F)C7)c6)cc45)nc23)c1 [Compound 25, 5-(5-((3,3-Difluoropyrrolidin-1-yl)methyl)pyridin-3-yl)-3-(4-(3-fluorophenyl)-1H-benzo[d]imidazol-2-yl)-1H-pyrazolo[3,4-c]pyridine]
EC50 [2]: 48 nM | IC50 [3]: 87.3 nM

FC1(F)CCN(Cc2cncc(-c3cc4c(-c5nc6c(-c7cccs7)cccc6[nH]5)n[nH]c4cn3)c2)C1 [Compound 337, 5-(5-((3,3-Difluoropyrrolidin-1-yl)methyl)pyridin-3-yl)-3-(4-(thiophen-2-yl)-1H-benzo[d]imidazol-2-yl)-1H-pyrazolo[3,4-c]pyridine]
EC50 [2]: 9 nM | IC50 [3]: 90.8 nM

c1ccc(-c2cccc3[nH]c(-c4n[nH]c5cnc(-c6cncc(CNCC7CCCC7)c6)cc45)nc23)nc1 [Compound 154, 1-Cyclopentyl-N-((5-(3-(4-(pyridin-2-yl)-1H-benzo[d]imidazol-2-yl)-1H-pyrazolo[3,4-c]pyridin-5-yl)pyridin-3-yl)methyl)methanamine]
EC50 [2]: 9 nM | IC50 [3]: 596 nM

CC(=O)c1ccc(-c2cccc3[nH]c(-c4n[nH]c5cnc(-c6cccnc6)cc45)nc23)s1 [Compound 394, 1-(5-(2-(5-(Pyridin-3-yl)-1H-pyrazolo[3,4-c]pyridin-3-yl)-1H-benzo[d]imidazol-4-yl)thiophen-2-yl)ethan-1-one]
EC50 [2]: 110 nM | IC50 [3]: 44.3 nM
